Consider 15 compounds from patent publication US6423689B1, “Peptidyl calcium channel blockers” (Warner-Lambert Company, priority 1997, dated 2002).

Structures are written as SMILES. *1 amine or outer side, *2 acyl side, *3 side chain or, on linkers, in order; H or OH if unused. Where a SMILES comes first, the peptide text is derived from it. The star is where a group is joined. Piperidide = C1CCN(*)CC1; CO = O=C([*:1])[*:2]; Bn = c1ccc(C*)cc1; OtBu = CC(C)(C)O*

This test has as its target T1, N-type Ca2+ channels in IMR-32 cells (Homo sapiens, UniProt Q00975).
T1 construct: host or cells: IMR-32 cells, differentiated with dibutyryl cAMP and bromodeoxyuridine
Description: Inhibition of N-type calcium flux in IMR-32 cells (Indo-1 fluorescence, nitrendipine present). Conditions: for IC50: IMR-32 cells, 5 μM nitrendipine, K+ depolarization; for inhibition at 1 µM / inhibition at 10 µM: IMR-32. The test is classed as cell-based. The method, boiled down:
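Differentiated IMR-32 cells (7–13 days) were loaded with 5 μM Indo-1 AM, preincubated with compound for 10 min at 30° C, and depolarized with KCl/CaCl2 stimulation solution, with 5 μM nitrendipine blocking L-channels. Peak-minus-basal 400/490 nm emission ratio was plotted against drug concentration, and IC50 came from four-parameter logistic fits.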
(In general: Calcium flux is commonly read through the fluorescence of an indicator in the cells.)

T1 sequence (Q00975 whole entry): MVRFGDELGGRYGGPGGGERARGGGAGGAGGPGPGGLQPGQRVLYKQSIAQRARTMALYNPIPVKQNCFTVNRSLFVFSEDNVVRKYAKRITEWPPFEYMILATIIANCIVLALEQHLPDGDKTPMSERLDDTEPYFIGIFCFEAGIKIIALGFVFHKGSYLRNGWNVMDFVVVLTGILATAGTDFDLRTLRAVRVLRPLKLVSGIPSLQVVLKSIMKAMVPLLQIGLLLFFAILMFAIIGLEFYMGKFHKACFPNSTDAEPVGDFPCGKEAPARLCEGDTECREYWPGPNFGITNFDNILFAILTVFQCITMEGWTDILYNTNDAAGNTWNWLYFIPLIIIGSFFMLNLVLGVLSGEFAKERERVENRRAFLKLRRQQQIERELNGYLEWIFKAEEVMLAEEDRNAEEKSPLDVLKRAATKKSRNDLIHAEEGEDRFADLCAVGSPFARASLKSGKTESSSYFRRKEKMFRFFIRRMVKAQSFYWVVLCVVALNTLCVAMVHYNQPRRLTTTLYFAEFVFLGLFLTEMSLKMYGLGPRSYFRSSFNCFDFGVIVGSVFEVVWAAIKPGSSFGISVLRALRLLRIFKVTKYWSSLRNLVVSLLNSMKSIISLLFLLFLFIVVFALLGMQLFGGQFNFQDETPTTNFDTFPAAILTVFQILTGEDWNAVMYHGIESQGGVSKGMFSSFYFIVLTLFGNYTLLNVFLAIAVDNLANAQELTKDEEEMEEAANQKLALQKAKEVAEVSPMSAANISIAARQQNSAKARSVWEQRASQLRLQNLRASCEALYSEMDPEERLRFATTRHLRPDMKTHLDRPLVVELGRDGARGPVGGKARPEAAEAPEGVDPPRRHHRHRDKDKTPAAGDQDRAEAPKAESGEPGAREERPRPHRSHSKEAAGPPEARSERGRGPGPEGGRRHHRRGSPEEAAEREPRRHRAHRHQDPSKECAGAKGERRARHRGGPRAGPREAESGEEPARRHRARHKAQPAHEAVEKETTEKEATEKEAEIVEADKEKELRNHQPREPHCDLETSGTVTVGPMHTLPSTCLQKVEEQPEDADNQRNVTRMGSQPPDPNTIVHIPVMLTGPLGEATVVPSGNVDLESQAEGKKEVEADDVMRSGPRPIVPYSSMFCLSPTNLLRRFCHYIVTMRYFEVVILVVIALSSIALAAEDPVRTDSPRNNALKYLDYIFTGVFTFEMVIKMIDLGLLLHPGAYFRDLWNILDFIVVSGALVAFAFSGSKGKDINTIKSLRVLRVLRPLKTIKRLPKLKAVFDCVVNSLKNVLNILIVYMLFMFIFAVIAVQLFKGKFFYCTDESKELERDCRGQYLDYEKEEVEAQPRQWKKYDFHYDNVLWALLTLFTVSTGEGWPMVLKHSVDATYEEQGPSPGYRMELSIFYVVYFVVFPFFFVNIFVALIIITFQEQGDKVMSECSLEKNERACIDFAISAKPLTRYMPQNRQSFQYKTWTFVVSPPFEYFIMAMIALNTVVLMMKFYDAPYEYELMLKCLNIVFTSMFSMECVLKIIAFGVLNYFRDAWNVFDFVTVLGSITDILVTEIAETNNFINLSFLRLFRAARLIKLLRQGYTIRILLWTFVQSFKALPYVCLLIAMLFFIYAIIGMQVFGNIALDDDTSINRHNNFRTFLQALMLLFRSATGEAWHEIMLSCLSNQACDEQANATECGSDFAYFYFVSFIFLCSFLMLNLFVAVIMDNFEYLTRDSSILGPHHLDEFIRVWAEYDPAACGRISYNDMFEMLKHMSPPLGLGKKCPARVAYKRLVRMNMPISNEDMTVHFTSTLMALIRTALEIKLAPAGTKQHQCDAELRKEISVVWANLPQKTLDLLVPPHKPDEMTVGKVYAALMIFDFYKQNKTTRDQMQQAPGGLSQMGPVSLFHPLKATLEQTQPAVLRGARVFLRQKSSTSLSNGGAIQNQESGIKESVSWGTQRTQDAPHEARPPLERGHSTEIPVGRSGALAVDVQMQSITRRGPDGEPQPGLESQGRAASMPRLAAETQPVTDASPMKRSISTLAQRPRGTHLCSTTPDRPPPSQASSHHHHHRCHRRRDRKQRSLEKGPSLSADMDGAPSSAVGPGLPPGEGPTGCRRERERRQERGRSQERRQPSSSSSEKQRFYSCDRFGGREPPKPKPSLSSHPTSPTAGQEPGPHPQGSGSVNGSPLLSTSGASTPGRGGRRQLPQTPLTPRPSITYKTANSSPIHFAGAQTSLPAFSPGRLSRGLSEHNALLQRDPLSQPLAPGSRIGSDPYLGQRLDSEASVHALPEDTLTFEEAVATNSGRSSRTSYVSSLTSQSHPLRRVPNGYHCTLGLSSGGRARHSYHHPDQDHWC
T1 sequence (P54289 25-956 partner limits assumed): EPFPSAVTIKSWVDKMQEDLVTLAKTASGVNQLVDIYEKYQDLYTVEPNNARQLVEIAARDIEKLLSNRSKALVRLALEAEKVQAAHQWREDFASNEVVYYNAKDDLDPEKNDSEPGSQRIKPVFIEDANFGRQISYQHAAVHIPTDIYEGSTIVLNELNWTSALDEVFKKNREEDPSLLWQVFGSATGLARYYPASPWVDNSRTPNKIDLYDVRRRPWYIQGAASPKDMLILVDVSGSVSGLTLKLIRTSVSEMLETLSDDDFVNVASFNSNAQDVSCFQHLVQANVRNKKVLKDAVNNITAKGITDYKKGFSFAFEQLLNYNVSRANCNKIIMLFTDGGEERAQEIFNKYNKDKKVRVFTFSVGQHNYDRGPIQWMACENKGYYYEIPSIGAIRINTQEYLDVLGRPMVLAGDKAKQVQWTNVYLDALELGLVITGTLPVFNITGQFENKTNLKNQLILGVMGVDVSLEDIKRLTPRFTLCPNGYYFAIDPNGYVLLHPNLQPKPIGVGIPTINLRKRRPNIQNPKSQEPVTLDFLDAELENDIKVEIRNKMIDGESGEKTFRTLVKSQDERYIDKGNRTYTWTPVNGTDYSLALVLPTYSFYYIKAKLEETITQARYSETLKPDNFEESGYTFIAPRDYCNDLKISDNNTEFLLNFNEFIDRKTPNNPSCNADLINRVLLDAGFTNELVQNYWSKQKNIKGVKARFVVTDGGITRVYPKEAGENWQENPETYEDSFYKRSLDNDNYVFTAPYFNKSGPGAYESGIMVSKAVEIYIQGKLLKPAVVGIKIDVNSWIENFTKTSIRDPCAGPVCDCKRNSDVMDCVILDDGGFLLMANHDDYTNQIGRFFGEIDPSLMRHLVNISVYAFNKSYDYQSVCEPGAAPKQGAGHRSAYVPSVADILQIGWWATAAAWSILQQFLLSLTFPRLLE
T1 sequence (P54289 957-1103 partner limits assumed): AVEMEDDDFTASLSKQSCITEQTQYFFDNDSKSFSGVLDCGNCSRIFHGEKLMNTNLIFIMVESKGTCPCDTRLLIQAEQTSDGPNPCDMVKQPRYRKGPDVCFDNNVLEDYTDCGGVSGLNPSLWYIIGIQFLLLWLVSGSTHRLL
T1 sequence (P54284 whole entry partner): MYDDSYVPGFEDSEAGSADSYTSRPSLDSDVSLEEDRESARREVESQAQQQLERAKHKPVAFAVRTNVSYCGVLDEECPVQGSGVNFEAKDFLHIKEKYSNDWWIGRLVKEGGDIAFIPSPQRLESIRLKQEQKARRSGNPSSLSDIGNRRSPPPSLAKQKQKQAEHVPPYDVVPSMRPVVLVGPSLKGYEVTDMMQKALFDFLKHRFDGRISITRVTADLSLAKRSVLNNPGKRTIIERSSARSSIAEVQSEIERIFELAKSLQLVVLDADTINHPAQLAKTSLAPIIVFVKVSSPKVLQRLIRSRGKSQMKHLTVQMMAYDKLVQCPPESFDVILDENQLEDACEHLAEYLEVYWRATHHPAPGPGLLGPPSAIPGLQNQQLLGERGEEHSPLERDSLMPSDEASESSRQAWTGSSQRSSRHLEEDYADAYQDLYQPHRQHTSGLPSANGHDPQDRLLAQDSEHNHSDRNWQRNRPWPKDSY

Regarding `CC(C)C[C@H](NC(=O)N1CCCCCC1)C(=O)N[C@@H](Cc1ccc(OCc2ccccc2)cc1)C(=O)N1CCN(CCOCCO)CC1` (relative stereo) [Example 228, [S-(R*,R*)]-Azepane-1-carboxylic acid-[1-(1-(4-benzyloxy-benzyl)-2-{4-[2-(2-hydroxy-ethoxy)-ethyl]-piperazin-1-yl}-2-oxo-ethylcarbamoyl)-3-methyl-butyl]-amide], the “Inhibition of Calcium Flux in IMR-32 Cells % Inhibition at 1 μM” value is on record as 24% and the “Inhibition of Calcium Flux in IMR-32 Cells % Inhibition at 10 μM” value is on record as 82%.

Take `CCC(CO)(CO)NC(=O)[C@H](Cc1ccc(OCc2ccccc2)cc1)NC(=O)[C@H](CC(C)C)NC(=O)N1CCCCCC1` (relative stereo) [Example 229, [S-(R*,R*)]-Azepane-1-carboxylic acid {1-[2-(4-benzyloxy-phenyl)-1-(1,1-bis-hydroxymethyl-propylcarbamoyl)-ethylcarbamoyl]-3-methyl-butyl}-amide]: the “Inhibition of Calcium Flux in IMR-32 Cells % Inhibition at 1 μM” value was 30% and the “Inhibition of Calcium Flux in IMR-32 Cells % Inhibition at 10 μM” value stood at 80%.

Turning to `CC(C)C[C@H](NC(=O)N1CCCCCC1)C(=O)N[C@@H](Cc1ccc(OCc2ccccc2)cc1)C(=O)N1CCC(O)CC1` (relative stereo) [Example 235, [S-(R*,R*)]-Azepane-1-carboxylic acid {1-[1-(4-benzyloxy-benzyl)-2-(4-hydroxy-piperidin-1-yl)-2-oxo-ethylcarbamoyl]-3-methyl-butyl}-amide], the “Inhibition of Calcium Flux in IMR-32 Cells % Inhibition at 1 μM” value worked out at 20% and the “Inhibition of Calcium Flux in IMR-32 Cells % Inhibition at 10 μM” value was found to be 64%.

As for `CC(C)C[C@H](NC(=O)N1CCCCCC1)C(=O)N[C@@H](Cc1ccc(OCc2ccccc2)cc1)C(=O)NCCC#N` (relative stereo) [Example 236, [S-(R*,R*)]-Azepane-1-carboxylic acid {1-[2-(4-benzyloxy-phenyl)-1-(2-cyano-ethylcarbamoyl)-ethylcarbamoyl]-3-methyl-butyl}-amide], the “Inhibition of Calcium Flux in IMR-32 Cells % Inhibition at 1 μM” value was determined as 50% and the “Inhibition of Calcium Flux in IMR-32 Cells % Inhibition at 10 μM” value is 93%.

The term IC50 denotes the concentration at which inhibition is half-maximal. On to `CC(C)C[C@H](NC(=O)N1CCCCCC1)C(=O)N[C@@H](Cc1ccc(OCc2ccccc2)cc1)C(=O)N1CCN(c2ccc(F)cc2)CC1` (relative stereo) [Example 240, [S-(R*,R*)]-Azepane-1-carboxylic acid (1-{1-(4-benzyloxy-benzyl)-2-[4-(4-fluoro-phenyl)-piperazin-1-yl]-2-oxo-ethylcarbamoyl}-3-methyl-butyl)-amide], for which the “Inhibition of Calcium Flux in IMR-32 Cells % Inhibition at 1 μM” value was 63%, the “Inhibition of Calcium Flux in IMR-32 Cells % Inhibition at 10 μM” value turned out to be 86% and the IC50 was 750 nM.

Turning to `CC(C)C[C@H](NC(=O)N1CCCCCC1)C(=O)N[C@@H](Cc1ccc(OCc2ccccc2)cc1)C(=O)NCc1cccc(I)c1` (relative stereo) [Example 241, [S-(R*,R*)]-Azepane-1-carboxylic acid {1-[2-(4-benzyloxy-phenyl)-1-(3-iodo-benzylcarbamoyl)-ethylcarbamoyl]-3-methyl-butyl}-amide], the “Inhibition of Calcium Flux in IMR-32 Cells % Inhibition at 1 μM” value came to 53% and the “Inhibition of Calcium Flux in IMR-32 Cells % Inhibition at 10 μM” value was 83%.

With `CC(C)C[C@H](NC(=O)N1CCCCCC1)C(=O)N[C@@H](Cc1ccc(OCc2ccccc2)cc1)C(=O)Nc1ccc(N2CCCCC2)cc1` (relative stereo) [Example 260, [S-(R*,R*)]-Azepane-1-carboxylic acid {1-[2-(4-benzyloxy-phenyl)-1-(4-piperidin-1-yl-phenylcarbamoyl)-ethylcarbamoyl]-3-methyl-butyl}-amide], the “Inhibition of Calcium Flux in IMR-32 Cells % Inhibition at 10 μM” value is 33%.

Regarding `CC(C)C[C@H](NC(=O)N1CCCCCC1)C(=O)N[C@@H](Cc1ccc(OCc2ccccc2)cc1)C(=O)c1cc[nH]n1` (relative stereo) [Example 261, [S-(R*,R*)]-Azepane-1-carboxylic acid {1-[2-(4-benzyloxy-phenyl)-1-(pyrazole-3-carbonyl)-ethylcarbamoyl]-3-methyl-butyl}-amide], the IC50 is 2000 nM.

As to `COc1cc(C(=O)NC(CC(C)C)C(=O)N[C@@H](Cc2ccc(OCc3ccccc3)cc2)C(=O)OC(C)(C)C)cc(OC)c1OC` (stereo in doubt) [Example 92, [S(R*,R*)]-3-(4-Benzyloxy-phenyl)-2-[4-methyl-2-(3,4,5-trimethoxy-benzoylamino)-pentanoylamino]-propionic acid tert-butyl ester], the “Inhibition of Calcium Flux in IMR-32 Cells % Inhibition at 1 μM” value stood at 1% and the “Inhibition of Calcium Flux in IMR-32 Cells % Inhibition at 10 μM” value is listed as 65%.

The inhibition is how much of the control response was suppressed. For `CSCCC(CO)NC(=O)[C@H](Cc1ccc(OCc2ccccc2)cc1)NC(=O)C(CC(C)C)NC(=O)N1CCCCCC1` (stereo in doubt) [Example 238, Azepane-1-carboxylic acid {(R)-1-[(S)-2-(4-benzyloxy-phenyl)-(S)-1-(1-hydroxymethyl-3-methylsulfanyl-propylcarbamoyl)-ethylcarbamoyl]-3-methyl-butyl}-amide], the inhibition at 1 µM turned out to be 62%, the inhibition at 10 µM was 95% and the IC50 came to 740 nM.

Take `CC(C)[C@H](NC(=O)N1CCCCCC1)C(=O)N[C@@H](Cc1ccc(OCc2ccccc2)cc1)C(=O)OC(C)(C)C` [Example 6, [S-(R*,R*)]-2-{2-[(Azepane-1-carbonyl)-amino]-3-methyl-butyrylamino}-3-(4-benzyloxy-phenyl)-propionic acid tert-butyl ester]: the inhibition at 1 µM was determined as 63%, the inhibition at 10 µM was 98% and the IC50 stood at 720 nM.

In the case of `CC(C)C[C@H](NC(=O)N1CCCCCC1)C(=O)N[C@@H](Cc1ccc(OCc2ccc(C#N)cc2)cc1)C(=O)OC(C)(C)C` [Example 27, [S-(R*,R*)]-2-{2-[(Azepane-1-carbonyl)-amino]-4-methyl-pentanoylamino}-3-[4-(4-cyano-benzyloxy)-phenyl]-propionic acid tert-butyl ester], the inhibition at 1 µM was found to be 51%, the inhibition at 10 µM came to 92% and the IC50 was found to be 810 nM.

`COc1ccc(COc2ccc(C[C@H](NC(=O)[C@H](CC(C)C)NC(=O)N3CCCCCC3)C(=O)OC(C)(C)C)cc2)cc1` [Example 32, [S-(R*,R*)]-2-{2-[(Azepane-1-carbonyl)-amino]-4-methyl-pentanoylamino}-3-[4-(4-methoxy-benzyloxy)-phenyl]-propionic acid tert-butyl ester]: the inhibition at 1 µM was 52%, the inhibition at 10 µM came to 86% and the IC50 is 820 nM.

Regarding `CC(C)C[C@H](NC(=O)N1CCCCC1)C(=O)N[C@@H](Cc1ccc(OCc2ccccc2)cc1)C(=O)OC(C)(C)C` [Example 33, [S-(R*,R*)]-3-(4-Benzyloxy-phenyl)-2-{4-methyl-2-[(piperidine-1-carbonyl)-amino]-pentanoylamino}-propionic acid tert-butyl ester] ({Piperidide-CO}-Leu-Tyr(Bn)-OtBu), the inhibition at 1 µM is 48%, the inhibition at 10 µM was found to be 79% and the IC50 was determined as 2200 nM.

Consider `CC(C)C[C@H](NC(=O)N[C@H](C)c1ccccc1)C(=O)N[C@@H](Cc1ccc(OCc2ccccc2)cc1)C(=O)OC(C)(C)C` [Example 63, 3-(4-Benzyloxy-phenyl)-(S)-2-{4-methyl-(S)-2-[3-[(R)-1-phenyl-ethyl]-ureido]-pentanoylamino}-propionic acid tert-butyl ester], for which the inhibition at 1 µM is 33%.
